In patent US11382898B2, “BAX activators and uses thereof in cancer therapy” (Albert Einstein College of Medicine, priority 2017, dated 2022):
pEC50, pIC50: −log10 of the molar value. Positions of bridges follow the written chain, without caps; N, C: chain ends. Non-standard residues stand in square brackets, D forms with d. Residues, ends and D or L forms follow the SMILES beside them. S5 = C=CCCC[C@](C)(N)C(=O)O

What was measured:
THP-1 and OCI-AML3 cells = assay: Viability assay of AML cells treated with venetoclax or BTSA1 alone or in combination; type: cell-based, human; conditions: BTSA1 at ~EC10 dose, 24 hrs
Text: Moreover, the synergistic effect of these two drugs is observed within hours, consistent with their kinetics of mitochondrial apoptosis activation.

OCI-AML3 leukemia cells = assay: Synergistic cytotoxicity with BCL-2 inhibitors in OCI-AML3 leukemia cells; type: cell-based, human; conditions: for pIC50: Homo sapiens, OCI-AML-3, 24 h, 24 h treatment; for synergy with ABT-199 (venetoclax) / synergy with ABT-263 (navitoclax): non-cytotoxic doses, 24 h
Method: Viability assays were performed in at least triplicate and the data normalized to vehicle-treated control wells. IC50 values were determined by nonlinear regression analysis using Prism software (Graphpad).

BAX [1] = target: T1, BAX (Homo sapiens, UniProt Q07812); assay: Competitive fluorescence polarization assay, FITC-BIM SAHBA2 from the BAX trigger site; type: binding; conditions: for pIC50: FITC-BIM SAHBA2 50 nM, BAX 500 nM, read-out: IC50, competition of FITC-BIM SAHBA2 from BAX
T1 construct: with serial dilutions of full-length BAX, BCL-XLΔC, MCL-1ΔNΔC, BFL-1/A1ΔC; made in house; host or cells: Escherichia coli
T1 sequence (Q07812 whole entry): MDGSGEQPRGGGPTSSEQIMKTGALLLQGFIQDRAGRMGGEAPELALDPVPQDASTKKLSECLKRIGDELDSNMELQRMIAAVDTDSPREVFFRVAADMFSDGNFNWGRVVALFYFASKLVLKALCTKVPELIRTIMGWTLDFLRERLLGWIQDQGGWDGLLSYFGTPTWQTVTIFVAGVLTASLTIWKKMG
Method: (§1) Fluorescence polarization assays (FPA) were performed as previously described (Gavathiotis et al., 2012). Firstly, direct binding isotherms were generated by incubating FITC-BIM SAHBA2 (50 nM) with serial dilutions of full-length BAX, BCL-XLΔC, MCL-1ΔNΔC, BFL-1/A1ΔC and fluorescence polarization was measured at 20 minutes on a F200 PRO microplate reader (TECAN). Subsequently, in competition assays, a serial dilution of small molecule or acetylated BIM SAHBA2 (Ac-BIM SAHB) was combined with FITC-BIM SAHBA2 (50 nM), followed by the addition of recombinant protein at ˜EC75 concentration, as determined by the direct binding assay (BAX: 500 nM; BCL-XLΔC, MCL-1ΔNΔC, BFL-1/A1ΔC: 200 nM).
(§2) A competitive fluorescence polarization assay that evaluates the capacity of compounds to compete a fluorescein-labeled stapled peptide of the BIM BH3 helix, FITC-BIM SAHBA2, from the BAX trigger site, was used to determine the binding potency (Gavathiotis et al., 2008; Gavathiotis et al., 2012).

BCL-XL = target: T2, BCL-XL (Homo sapiens, UniProt Q07817); assay: Competitive fluorescence polarization assay, FITC-BIM SAHBA2 bound to BCL-XL; type: binding; conditions: BTSA1 at 50 μM
T2 construct: BCL-XLΔC, MCL-1ΔNΔC, BFL-1/A1ΔC: 200 nM; made in house; host or cells: Escherichia coli
T2 sequence (Q07817 1-212 limits assumed): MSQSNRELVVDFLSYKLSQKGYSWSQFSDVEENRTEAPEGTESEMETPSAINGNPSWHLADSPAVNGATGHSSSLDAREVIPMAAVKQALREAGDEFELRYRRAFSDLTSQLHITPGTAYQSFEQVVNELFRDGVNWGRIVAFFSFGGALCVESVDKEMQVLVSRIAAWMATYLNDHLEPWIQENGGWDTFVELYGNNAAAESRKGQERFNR
Method: as §1, §2

MCL-1 = assay: Competitive fluorescence polarization assay, FITC-BIM SAHBA2 bound to MCL-1; type: binding, Human; conditions: BTSA1 at 50 μM
Method: as §1, §2

BFL-1/A1 = assay: Competitive fluorescence polarization assay, FITC-BIM SAHBA2 bound to BFL-1/A1; type: binding, Human; conditions: BTSA1 at 50 μM
Method: as §1, §2

[2] = test system: anti-apoptotic BCL-2 family proteins (BCL-2, BCL-XL, MCL-1); assay: Pull down assay with biotinylated BTSA1, anti-apoptotic BCL-2 family proteins; type: binding, human
Method: OCI-AML3, MEFs and HPB-ALL cytosolic and mitochondrial lysates were generated by Dounce Homogenization. Cells were lysed by Dounce homogenizer in lysis buffer (LB) containing 10 mM Tris, pH 7.5, 1 mM EGTA, 200 mM sucrose plus Complete Protease Inhibitors. The cell lysates were centrifuged at 700×g for 10 min to remove unbroken cells and nuclei. The supernatants were centrifuged at 12000× g for 10 min at 4° C. and the resulting pellet was collected as the mitochondrial fraction and supernatant as the cytosolic fraction. The mitochondrial fraction was resuspended in LB+1% CHAPS to solubilize proteins. […] Biotin capture was achieved by incubation with high capacity streptavidin agarose (50 μL 50% slurry/reaction—Pierce) for 1 hour at room temperature. The streptavidin beads were washed (3×) at room temperature with 1×PBS. Cellular BAX bound to the biotinylated-BTSA1 was eluted by boiling for 20 minutes in LDS buffer and then subjected to BAX (2772S, Cell Signaling), BCL-2 (BD Biosciences Cat. 610539), BCL-XL (Cell Signaling Cat. 2764) and MCL-1 (Cell Signaling Cat. 4572) western blot analysis.

BAX [3] = target: T1, BAX; assay: Direct fluorescence polarization binding of fluorescein-labeled BTSA1 to BAX; conditions: fluorescein-labeled compound

SMILES: CC1(C)CCC(CN2CCN(c3ccc(C(=O)NS(=O)(=O)c4ccc(NCC5CCOCC5)c([N+](=O)[O-])c4)c(Oc4cnc5[nH]ccc5c4)c3)CC2)=C(c2ccc(Cl)cc2)C1 [ABT-199, 4-(4-{[2-(4-Chlorophenyl)-4,4-dimethyl-1-cyclohexen-1-yl]methyl}-1-piperazinyl)-N-({3-nitro-4-[(tetrahydro-2H-pyran-4-ylmethyl)amino]phenyl}sulfonyl)-2-(1H-pyrrolo[2,3-b]pyridin-5-yloxy)benzamide]
- EC50 of venetoclax in combination with BTSA1 (THP-1 and OCI-AML3 cells): low nM concentration
- pIC50 (OCI-AML3 leukemia cells; BAX activator concentration 0.625 μM): 5.41
- pIC50 (OCI-AML3 leukemia cells; BAX activator concentration 1.25 μM): 5.32
- pIC50 (OCI-AML3 leukemia cells; BAX activator concentration […]): 5.44

SMILES: CC[C@H](C)[C@H](NC(=O)[C@H](Cc1c[nH]c2ccccc12)NC(=O)[C@@H](NC(=O)[C@H](CCC(=O)O)NC(C)=O)[C@@H](C)CC)C(=O)N[C@@H](C)C(=O)N[C@@H](CCC(N)=O)C(=O)N[C@@H](CCC(=O)O)C(=O)N[C@@H](CC(C)C)C(=O)N[C@@H](CCCNC(=N)N)C(=O)N[C@@]1(C)CCCC=CCCC[C@@](C)(C(=O)N[C@@H](Cc2ccccc2)C(=O)N[C@@H](CC(N)=O)C(=O)N[C@@H](C)C(=O)N[C@@H](Cc2ccc(O)cc2)C(=O)N[C@@H](Cc2ccc(O)cc2)C(=O)N[C@@H](C)C(N)=O)NC(=O)[C@H](CC(=O)O)NC(=O)CNC(=O)[C@H]([C@@H](C)CC)NC1=O [BIM SAHBA2] (Ac-EIWIAQELR[S5]IGD[S5]FNAYYA-NH2; staple 10-14)
- pIC50 (BAX [1]): 6.55
- capacity to compete FITC-BIM SAHBA2 from BCL-XL (BCL-XL): effectively competed
- capacity to compete FITC-BIM SAHBA2 from MCL-1 (MCL-1): effectively competed
- capacity to compete FITC-BIM SAHBA2 from BFL-1/A1 (BFL-1/A1): effectively competed

SMILES: CC1=NN(c2nc(-c3ccccc3)cs2)C(=O)C1=NNc1nccs1 [BTSA2]
- reduction in binding capacity to BAX relative to BTSA1 (BAX [1]): ~10 fold
- pIC50 (BAX [1]): 5.43

SMILES: Cc1nc(N/N=C2\C(=O)N(c3nc(-c4ccccc4)cs3)N=C2c2ccccc2)sc1C [GAV2-006]
- synergy with ABT-199 (venetoclax) (OCI-AML3 leukemia cells): significant synergistic cytotoxicity
- synergy with ABT-263 (navitoclax) (OCI-AML3 leukemia cells): significant synergistic cytotoxicity

SMILES: O=C1/C(=N\Nc2nccs2)C(c2ccccc2)=NN1c1nc(-c2ccc(F)cc2)cs1 [GAV2-008]
- synergy with ABT-199 (venetoclax) (OCI-AML3 leukemia cells): significant synergistic cytotoxicity
- synergy with ABT-263 (navitoclax) (OCI-AML3 leukemia cells): significant synergistic cytotoxicity

SMILES: COc1ccc(C2=NN(c3nc(-c4ccccc4)cs3)C(=O)/C2=N\Nc2nccs2)cc1 [GAV2-010]
- synergy with ABT-199 (venetoclax) (OCI-AML3 leukemia cells): significant synergistic cytotoxicity

SMILES: O=C(CCCC[C@H]1SCC2NC(=O)NC21)NCCCOCCOCCOCCCNC(=O)c1ccc(-c2csc(N3N=C(c4ccccc4)C(=NNc4nccs4)C3=O)n2)cc1 (stereo partly drawn) [biotinylated BTSA1, N-(15-oxo-19-((4R)-2-oxohexahydro-1H-thieno[3,4-d]imidazol-4-yl)-4,7,10-trioxa-14-azanonadecyl)-4-(2-(5-oxo-3-phenyl-4-(2-(thiazol-2-yl)hydrazono)-4,5-dihydro-1Hpyrazol-1-yl)thiazol-4-yl)benzamide]
- reduction in binding capacity to BAX relative to BTSA1 (BAX [1]): ten-fold
- pIC50 (BAX [1]): 5.70
- pull down of anti-apoptotic BCL-2 family proteins [2]: failed to pull down

SMILES: O=C(NCCCOCCOCCOCCCNC(=S)Nc1ccc2c(c1)C(=O)OC21c2ccc(O)cc2Oc2cc(O)ccc21)c1ccc(-c2csc(N3N=C(c4ccccc4)C(=NNc4nccs4)C3=O)n2)cc1 [fluorescein-labeled BTSA1, N-(1-((3′,6′-dihydroxy-3-oxo-3H-spiro[isobenzofuran-1,9′-xanthen]-5-yl)amino)-1-thioxo-6,9,12-trioxa-2-azapentadecan-15-yl)-4-(2-(5-oxo-3-phenyl-4-(2-(thiazol-2-yl)hydrazineylidene)-4,5-dihydro-1H-pyrazol-1-yl)thiazol-4-yl)-benzamide]
- pEC50 (BAX [3]): 6.84
